US12157746B2, “Tetrahydro-1H-pyrazino[2,1-a]isoindolylquinoline compounds for the treatment of autoimmune disease” (F. HOFFMANN-LA ROCHE AG, priority 2018, dated 2024)
pIC50: −log10 of the molar value.

molecular target: T1, human TLR7 (Homo sapiens, UniProt Q9NYK1); assay: HEK293-Blue-hTLR-7 cells assay; type: cell-based; conditions: HEK293-Blue-hTLR7 cells, R848 stimulation, 20 hrs, SEAP reporter; read-out: HEK/hTLR7 IC50
T1 sequence (Q9NYK1 27-1049): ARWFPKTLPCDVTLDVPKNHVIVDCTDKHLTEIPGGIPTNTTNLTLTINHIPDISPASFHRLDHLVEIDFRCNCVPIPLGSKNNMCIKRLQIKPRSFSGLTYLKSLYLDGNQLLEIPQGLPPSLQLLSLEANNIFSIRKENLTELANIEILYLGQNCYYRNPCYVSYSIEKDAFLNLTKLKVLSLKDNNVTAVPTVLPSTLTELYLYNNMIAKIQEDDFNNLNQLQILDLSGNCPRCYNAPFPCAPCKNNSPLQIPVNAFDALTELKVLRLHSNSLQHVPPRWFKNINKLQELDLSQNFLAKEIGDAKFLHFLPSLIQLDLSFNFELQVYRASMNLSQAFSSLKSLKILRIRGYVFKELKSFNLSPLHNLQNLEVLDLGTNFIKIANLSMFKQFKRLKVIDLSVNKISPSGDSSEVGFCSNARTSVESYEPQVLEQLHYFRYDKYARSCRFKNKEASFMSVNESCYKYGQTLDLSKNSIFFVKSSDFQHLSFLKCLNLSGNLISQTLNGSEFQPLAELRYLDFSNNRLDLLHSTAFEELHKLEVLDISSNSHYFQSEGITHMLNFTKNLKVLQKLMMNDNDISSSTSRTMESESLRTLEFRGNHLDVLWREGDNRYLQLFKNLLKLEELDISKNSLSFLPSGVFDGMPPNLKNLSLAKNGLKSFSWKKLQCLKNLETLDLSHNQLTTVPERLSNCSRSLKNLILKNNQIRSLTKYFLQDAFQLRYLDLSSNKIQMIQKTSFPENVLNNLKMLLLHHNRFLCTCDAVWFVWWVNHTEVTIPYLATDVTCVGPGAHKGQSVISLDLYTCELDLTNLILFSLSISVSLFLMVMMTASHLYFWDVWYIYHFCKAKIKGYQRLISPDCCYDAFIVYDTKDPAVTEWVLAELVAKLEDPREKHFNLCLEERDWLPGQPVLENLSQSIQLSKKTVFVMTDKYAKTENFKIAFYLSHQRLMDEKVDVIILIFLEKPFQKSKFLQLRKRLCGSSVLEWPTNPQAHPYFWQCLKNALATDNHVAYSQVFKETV
Text: HEK293-Blue-hTLR-7 Cells Assay:
A stable HEK293-Blue-hTLR-7 cell line was purchased from InvivoGen (Cat. #: hkb-htlr7, San Diego, California, USA). These cells were originally designed for studying the stimulation of human TLR7 by monitoring the activation of NF-κB. A SEAP (secreted embryonic alkaline phosphatase) reporter gene was placed under the control of the IFN-β minimal promoter fused to five NF-κB and AP-1-binding sites. The SEAP was induced by activating NF-κB and AP-1 via stimulating HEK-Blue hTLR7 cells with TLR7 ligands. Therefore the reporter expression was declined by TLR7 antagonist under the stimulation of a ligand, such as R848 (Resiquimod), for incubation of 20 hrs. The cell culture supernatant SEAP reporter activity was determined using QUANTI-Blue™ kit (Cat. #: rep-qb1, Invivogen, San Diego, Ca. USA) at a wavelength of 640 nm, a detection medium that turns purple or blue in the presence of alkaline phosphatase.
HEK293-Blue-hTLR7 cells were incubated at a density of 250,000˜450,000 cells/mL in a volume of 170 μL in a 96-well plate in Dulbecco's Modified Eagle's medium (DMEM) containing 4.5 g/L glucose, 50 U/mL penicillin, […], […], 2 mM L-glutamine, 10% (v/v) heat-inactivated fetal bovine serum with addition of 20 μL test compound 1n a serial dilution in the presence of final DMSO at 1% and 10 μL of 20 uM R848 in above DMEM, perform incubation under 37° C. in a CO2 incubator for 20 hrs. Then 20 μL of the supernatant from each well was incubated with 180 μL Quanti-blue substrate solution at 37° C. for 2 hrs and the absorbance was read at 620-655 nm using a spectrophotometer. The signaling pathway that TLR7 activation leads to downstream NF-κB activation has been widely accepted, and therefore similar reporter assay was modified for evaluating TLR7 antagonist.

Row | Compound | pIC50
1 | C[C@@H]1CN(c2ccc(C#N)c3ncccc23)C[C@@H]2c3ccc(N4CCOC5(CNC5)C4)cc3CN12 [Example 24, 5-[(4R,10bS)-4-methyl-8-(5-oxa-2,8-diazaspiro[3.5]nonan-8-yl)-3,4,6,10b-tetrahydro-1H-pyrazino[2,1-a]isoindol-2-yl]quinoline-8-carbonitrile] | 8.47
2 | C[C@@H]1CN(c2ccc(C#N)c3ncccc23)C[C@@H]2c3ccc(OCCN(C)C)cc3CN12 [Example 25, 5-[(4R,10bS)-8-[2-(dimethylamino)ethoxy]-4-methyl-3,4,6,10b-tetrahydro-1H-pyrazino[2,1-a]isoindol-2-yl]quinoline-8-carbonitrile] | > 8.49
3 | C[C@@H]1CN(c2ccc(C#N)c3ncccc23)C[C@@H]2c3ccc(NCCN(C)C)cc3CN12 [Example 26, 5-[(4R,10bS)-8-[2-(dimethylamino)ethylamino]-4-methyl-3,4,6,10b-tetrahydro-1H-pyrazino[2,1-a]isoindol-2-yl]quinoline-8-carbonitrile] | 8.24
4 | C[C@@H]1CN(c2ccc(C#N)c3ncccc23)C[C@@H]2c3ccc(NC4CNC4)cc3CN12 [Example 28, 5-[(4R,10S)-8-(azetidin-3-ylamino)-4-methyl-3,4,6,10b-tetrahydro-1H-pyrazino[2,1-a]isoindol-2-yl]quinoline-8-carbonitrile] | 7.81
5 | C[C@@H]1CN(c2ccc(C#N)c3ncccc23)C[C@@H]2c3ccc(C4CNC4)cc3CN12 [Example 29, 5-[(4R,10bS)-8-(azetidin-3-yl)-4-methyl-3,4,6,10b-tetrahydro-1H-pyrazino[2,1-a]isoindol-2-yl]quinoline-8-carbonitrile] | > 8.49
6 | C[C@@H]1CN(c2ccc(C#N)c3ncccc23)C[C@@H]2c3ccc(N[C@H]4CNC[C@H]4F)cc3CN12 [Example 30, 5-[(4R,10bS)-8-[[(3S,4R)-4-fluoropyrrolidin-3-yl]amino]-4-methyl-3,4,6,10b-tetrahydro-1H-pyrazino[2,1-a]isoindol-2-yl]quinoline-8-carbonitrile] | > 8.49
7 | C[C@@H]1CN(c2ccc(C#N)c3ncccc23)C[C@@H]2c3ccc(N[C@H]4CNC[C@@H]4F)cc3CN12 [Example 31, 5-[(4R,10bS)-8-[[(3S,4S)-4-fluoropyrrolidin-3-yl]amino]-4-methyl-3,4,6,10b-tetrahydro-1H-pyrazino[2,1-a]isoindol-2-yl]quinoline-8-carbonitrile] | 8.39
8 | C[C@@H]1CN(c2ccc(C#N)c3ncccc23)C[C@@H]2c3ccc(N[C@@H]4CNC[C@@H]4F)cc3CN12 [Example 32, 5-[(4R,10bS)-8-[[(3R,4S)-4-fluoropyrrolidin-3-yl]amino]-4-methyl-3,4,6,10b-tetrahydro-1H-pyrazino[2,1-a]isoindol-2-yl]quinoline-8-carbonitrile] | 8.46
9 | C[C@@H]1CN(c2ccc(C#N)c3ncccc23)C[C@@H]2c3ccc(N[C@@H]4CNC[C@H]4F)cc3CN12 [Example 33, 5-[(4R,10bS)-8-[[(3R,4R)-4-fluoropyrrolidin-3-yl]amino]-4-methyl-3,4,6,10b-tetrahydro-1H-pyrazino[2,1-a]isoindol-2-yl]quinoline-8-carbonitrile] | > 8.49
10 | CO[C@@H]1CNC[C@H]1Nc1ccc2c(c1)CN1[C@H](C)CN(c3ccc(C#N)c4ncccc34)C[C@H]21 [Example 34, 5-[(4R,10bS)-8-[[(3R,4R)-4-methoxypyrrolidin-3-yl]amino]-4-methyl-3,4,6,10b-tetrahydro-1H-pyrazino[2,1-a]isoindol-2-yl]quinoline-8-carbonitrile] | 8.13
11 | C[C@@H]1CN(c2ccc(C#N)c3ncccc23)C[C@@H]2c3ccc(N4CC5(CNCCO5)C4)cc3CN12 [Example 35, 5-[(4R,10bS)-4-methyl-8-(5-oxa-2,8-diazaspiro[3.5]nonan-2-yl)-3,4,6,10b-tetrahydro-1H-pyrazino[2,1-a]isoindol-2-yl]quinoline-8-carbonitrile] | > 8.49
